Measured values from PubChem BioAssay (NCI).
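Interpolation was linear, between the two tested concentrations surrounding the appropriate level; five concentrations were tested over 48 hours in 96-well plates. At the GI50, growth is halved. TGI denotes the concentration required for complete inhibition of growth.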

Columns and labels:
Test in all cases: NCI-60 cell line screen, 48 h
786-0 renal = system: 786-0 renal
HCT-15 colon = system: HCT-15 colon
SNB-75 CNS = system: SNB-75 CNS
A498 renal = system: A498 renal
SK-MEL-2 melanoma = system: SK-MEL-2 melanoma
PC-3 prostate = system: PC-3 prostate
T-47D breast = system: T-47D breast
RXF 393 renal = system: RXF 393 renal
TK-10 renal = system: TK-10 renal
KM12 colon = system: KM12 colon
M14 melanoma = system: M14 melanoma
HOP-62 NSCLC = system: HOP-62 NSCLC
EKVX NSCLC = system: EKVX NSCLC
HOP-92 NSCLC = system: HOP-92 NSCLC
UACC-257 melanoma = system: UACC-257 melanoma
UACC-62 melanoma = system: UACC-62 melanoma
UO-31 renal = system: UO-31 renal
SF-268 CNS = system: SF-268 CNS
NCI-H23 lung = system: NCI-H23 lung
OVCAR-3 ovarian = system: OVCAR-3 ovarian
SW-620 colon = system: SW-620 colon
DU-145 prostate = system: DU-145 prostate
SF-295 CNS = system: SF-295 CNS
CCRF-CEM leukemia = system: CCRF-CEM leukemia
MALME-3M melanoma = system: MALME-3M melanoma
HCC-2998 colon = system: HCC-2998 colon
U251 CNS = system: U251 CNS
BT-549 breast = system: BT-549 breast
HL-60(TB) leukemia = system: HL-60(TB) leukemia
CAKI-1 renal = system: CAKI-1 renal
ACHN renal = system: ACHN renal
SK-OV-3 ovarian = system: SK-OV-3 ovarian
RPMI-8226 leukemia = system: RPMI-8226 leukemia
NCI-H460 lung = system: NCI-H460 lung
MDA-MB-468 breast = system: MDA-MB-468 breast
NCI-H226 lung = system: NCI-H226 lung
OVCAR-4 ovarian = system: OVCAR-4 ovarian
NCI-H522 lung = system: NCI-H522 lung
SN12C renal = system: SN12C renal
SR leukemia = system: SR leukemia
K-562 leukemia = system: K-562 leukemia
MDA-MB-231 breast = system: MDA-MB-231 breast
SNB-19 CNS = system: SNB-19 CNS
OVCAR-5 ovarian = system: OVCAR-5 ovarian
SF-539 CNS = system: SF-539 CNS
NCI/ADR-RES ovarian = system: NCI/ADR-RES ovarian
HCT-116 colon = system: HCT-116 colon
MDA-MB-435 = system: MDA-MB-435
COLO 205 colon = system: COLO 205 colon
A549 NSCLC = system: A549 NSCLC
OVCAR-8 ovarian = system: OVCAR-8 ovarian
SK-MEL-5 melanoma = system: SK-MEL-5 melanoma
IGROV1 ovarian = system: IGROV1 ovarian
LOX IMVI melanoma = system: LOX IMVI melanoma
HT29 colon = system: HT29 colon
SK-MEL-28 melanoma = system: SK-MEL-28 melanoma

In the case of `NS(=O)(=O)c1ccc(N=Nc2c(O)n(CC(=O)Nc3ccccc3)c3ccccc23)cc1`, the GI50 (786-0 renal) is reported as 1290 nM, the TGI (786-0 renal) is reported as 6540 nM and the GI50 (HCT-15 colon) is reported as 533 nM. It also gave a TGI (HCT-15 colon) of over 100000 nM, a GI50 (SNB-75 CNS) of 1940 nM and a TGI (SNB-75 CNS) of 8220 nM. It also gave a GI50 (A498 renal) of 1290 nM, a TGI (A498 renal) of 5390 nM and a GI50 (SK-MEL-2 melanoma) of 2250 nM. For the same compound, the TGI (SK-MEL-2 melanoma) was 6900 nM, the GI50 (PC-3 prostate) was 1610 nM and the TGI (PC-3 prostate) was 10900 nM. The GI50 (T-47D breast) was 1890 nM, the TGI (T-47D breast) was 21400 nM and the GI50 (RXF 393 renal) was 1360 nM. It also gave a TGI (RXF 393 renal) of 5060 nM, a GI50 (TK-10 renal) of 2640 nM and a TGI (TK-10 renal) of 25800 nM. It also gave a GI50 (KM12 colon) of 1030 nM, a TGI (KM12 colon) of 22500 nM and a GI50 (M14 melanoma) of 1140 nM. The TGI (M14 melanoma) was over 100000 nM, the GI50 (HOP-62 NSCLC) was 1800 nM and the TGI (HOP-62 NSCLC) was 5500 nM. The GI50 (EKVX NSCLC) was 3350 nM, the TGI (EKVX NSCLC) was 39300 nM and the GI50 (HOP-92 NSCLC) was 1600 nM. For the same compound, the TGI (HOP-92 NSCLC) was 6560 nM, the GI50 (UACC-257 melanoma) was 2020 nM and the TGI (UACC-257 melanoma) was 20300 nM. The GI50 (UACC-62 melanoma) was 520 nM, the TGI (UACC-62 melanoma) was 2810 nM and the GI50 (UO-31 renal) was 895 nM. It also gave a TGI (UO-31 renal) of 6950 nM, a GI50 (SF-268 CNS) of 3590 nM and a TGI (SF-268 CNS) of over 100000 nM. It also gave a GI50 (NCI-H23 lung) of 801 nM, a TGI (NCI-H23 lung) of 3460 nM and a GI50 (OVCAR-3 ovarian) of 873 nM. For the same compound, the TGI (OVCAR-3 ovarian) was 16000 nM, the GI50 (SW-620 colon) was 402 nM and the TGI (SW-620 colon) was 2260 nM. It also gave a GI50 (DU-145 prostate) of 794 nM, a TGI (DU-145 prostate) of 48300 nM and a GI50 (SF-295 CNS) of 1230 nM. The TGI (SF-295 CNS) was 5160 nM, the GI50 (CCRF-CEM leukemia) was 776 nM and the TGI (CCRF-CEM leukemia) was over 100000 nM. It also gave a GI50 (MALME-3M melanoma) of 1090 nM, a TGI (MALME-3M melanoma) of 5150 nM and a GI50 (HCC-2998 colon) of 2200 nM. The TGI (HCC-2998 colon) was 8560 nM, the GI50 (U251 CNS) was 1170 nM and the TGI (U251 CNS) was 3880 nM. It also gave a GI50 (BT-549 breast) of 2030 nM, a TGI (BT-549 breast) of 7730 nM and a GI50 (HL-60(TB) leukemia) of 443 nM. It also gave a TGI (HL-60(TB) leukemia) of over 100000 nM, a GI50 (CAKI-1 renal) of 434 nM and a TGI (CAKI-1 renal) of 2360 nM. It also gave a GI50 (ACHN renal) of 606 nM, a TGI (ACHN renal) of 4530 nM and a GI50 (SK-OV-3 ovarian) of 3110 nM. It also gave a TGI (SK-OV-3 ovarian) of 10200 nM, a GI50 (RPMI-8226 leukemia) of 1130 nM and a TGI (RPMI-8226 leukemia) of over 100000 nM. For the same compound, the GI50 (NCI-H460 lung) was 544 nM, the TGI (NCI-H460 lung) was 3070 nM and the GI50 (MDA-MB-468 breast) was 768 nM. The TGI (MDA-MB-468 breast) was 4650 nM, the GI50 (NCI-H226 lung) was 1400 nM and the TGI (NCI-H226 lung) was 4750 nM. It also gave a GI50 (OVCAR-4 ovarian) of 930 nM, a TGI (OVCAR-4 ovarian) of 69700 nM and a GI50 (NCI-H522 lung) of 589 nM. It also gave a TGI (NCI-H522 lung) of 3800 nM, a GI50 (SN12C renal) of 1140 nM and a TGI (SN12C renal) of 6050 nM. For the same compound, the GI50 (SR leukemia) was 194 nM, the TGI (SR leukemia) was over 100000 nM and the GI50 (K-562 leukemia) was 895 nM. For the same compound, the TGI (K-562 leukemia) was over 100000 nM, the GI50 (MDA-MB-231 breast) was 1400 nM and the TGI (MDA-MB-231 breast) was 3920 nM. It also gave a GI50 (SNB-19 CNS) of 1670 nM, a TGI (SNB-19 CNS) of 15100 nM and a GI50 (OVCAR-5 ovarian) of 3520 nM. It also gave a TGI (OVCAR-5 ovarian) of 26100 nM, a GI50 (SF-539 CNS) of 538 nM and a TGI (SF-539 CNS) of 2030 nM. The GI50 (NCI/ADR-RES ovarian) was over 100000 nM, the TGI (NCI/ADR-RES ovarian) was over 100000 nM and the GI50 (HCT-116 colon) was 460 nM. The TGI (HCT-116 colon) was 2580 nM, the GI50 (MDA-MB-435) was 635 nM and the TGI (MDA-MB-435) was 6100 nM. For the same compound, the GI50 (COLO 205 colon) was 1240 nM, the TGI (COLO 205 colon) was 6740 nM and the GI50 (A549 NSCLC) was 738 nM. The TGI (A549 NSCLC) was 4180 nM, the GI50 (OVCAR-8 ovarian) was 646 nM and the TGI (OVCAR-8 ovarian) was 3160 nM. It also gave a GI50 (SK-MEL-5 melanoma) of 1000 nM, a TGI (SK-MEL-5 melanoma) of 5500 nM and a GI50 (IGROV1 ovarian) of 2790 nM. It also gave a TGI (IGROV1 ovarian) of 14500 nM, a GI50 (LOX IMVI melanoma) of 725 nM and a TGI (LOX IMVI melanoma) of 11300 nM. The GI50 (HT29 colon) was 749 nM, the TGI (HT29 colon) was 2820 nM and the GI50 (SK-MEL-28 melanoma) was 932 nM. The TGI (SK-MEL-28 melanoma) was 6060 nM.
